This passage reports Ki and inhibition results from ChEMBL document CHEMBL4312026, “Synthesis, biological and molecular dynamics investigations with a series of triazolopyrimidine/triazole-based benzenesulfonamides as novel carbonic anhydrase inhibitors” (Eur J Med Chem, 2020).

Data set [1] deals with T1, Carbonic anhydrase 1 (Homo sapiens, UniProt P00915). Nature of the data set: Inhibition of recombinant human carbonic anhydrase-1 incubated for 15 mins by stopped flow CO2 hydrase assay.
Data set [2] deals with T2, Carbonic anhydrase 9 (Homo sapiens, UniProt Q16790). Nature of the data set: Inhibition of recombinant human carbonic anhydrase-9 incubated for 15 mins by stopped flow CO2 hydrase assay.
Data set [3] concerns the target T3, Carbonic anhydrase 2 (Homo sapiens, UniProt P00918). The data set is described as follows: Inhibition of recombinant human carbonic anhydrase-2 incubated for 15 mins by stopped flow CO2 hydrase assay.
For data set [4], the target named is T2, Carbonic anhydrase 9. The following applies: at 1 nM.
Description: Inhibition of recombinant human carbonic anhydrase-9 at 1 nM after 15 mins by stopped flow CO2 hydrase assay (Rvb = 0%)
The target in data set [5] is T3, Carbonic anhydrase 2. The data set is described as follows: Inhibition of recombinant human carbonic anhydrase-2 at 1 uM after 15 mins by stopped flow CO2 hydrase assay (reference value: 0%).
Data set [6] deals with T1, Carbonic anhydrase 1. Nature of the data set: Inhibition of recombinant human carbonic anhydrase-1 at 10 uM after 15 mins by stopped flow CO2 hydrase assay (reference value: 0%).
Data set [7] deals with T3, Carbonic anhydrase 2. The data set is described as follows: Inhibition of recombinant human carbonic anhydrase-2 at 0.01 uM after 15 mins by stopped flow CO2 hydrase assay (reference value: 0%).
The target in data set [8] is T1, Carbonic anhydrase 1. Nature of the data set: Inhibition of recombinant human carbonic anhydrase-1 at 0.1 uM after 15 mins by stopped flow CO2 hydrase assay (reference value: 0%).
For data set [9], the target named is T2, Carbonic anhydrase 9. The following applies: at 0.1 µM.
Description: Inhibition of recombinant human carbonic anhydrase-9 at 0.1 uM after 15 mins by stopped flow CO2 hydrase assay (Rvb = 0%)
For data set [10], the target named is T2, Carbonic anhydrase 9. Nature of the data set: Inhibition of recombinant human carbonic anhydrase-9 at 0.1 nM after 15 mins by stopped flow CO2 hydrase assay (reference value: 0%).
The target of data set [11] is T3, Carbonic anhydrase 2. The data set is described as follows: Inhibition of recombinant human carbonic anhydrase-2 at 0.1 uM after 15 mins by stopped flow CO2 hydrase assay (reference value: 0%).
For data set [12], the target named is T3, Carbonic anhydrase 2. Nature of the data set: Inhibition of recombinant human carbonic anhydrase-2 at 10 uM after 15 mins by stopped flow CO2 hydrase assay (reference value: 0%).
For data set [13], the target named is T1, Carbonic anhydrase 1. Nature of the data set: Inhibition of recombinant human carbonic anhydrase-1 at 1 uM after 15 mins by stopped flow CO2 hydrase assay (reference value: 0%).
Data set [14] concerns the target T1, Carbonic anhydrase 1. The data set is described as follows: Inhibition of recombinant human carbonic anhydrase-1 at 0.01 uM after 15 mins by stopped flow CO2 hydrase assay (reference value: 0%).
Data set [15] concerns the target T2, Carbonic anhydrase 9. The following applies: at 0.01 µM.
Description: Inhibition of recombinant human carbonic anhydrase-9 at 0.01 uM after 15 mins by stopped flow CO2 hydrase assay (Rvb = 0%)

T1 sequence (P00915 whole entry): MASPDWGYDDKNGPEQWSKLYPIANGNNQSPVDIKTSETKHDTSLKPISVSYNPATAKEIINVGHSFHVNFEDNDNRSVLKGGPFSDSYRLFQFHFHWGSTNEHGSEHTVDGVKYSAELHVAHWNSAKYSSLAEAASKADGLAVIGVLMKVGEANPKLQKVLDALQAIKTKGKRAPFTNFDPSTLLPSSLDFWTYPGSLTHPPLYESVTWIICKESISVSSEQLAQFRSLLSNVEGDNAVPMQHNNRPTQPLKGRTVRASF

As to `C/C(=N\NC(=O)c1nc(N)n(-c2ccc(S(N)(=O)=O)cc2)n1)c1ccccc1`, the inhibition constant Ki in data set [1] came out at 633 nM; in data set [2], 41.3 nM; in data set [3] it was 8.9 nM.

As for `Nc1nc(C(=O)N/N=C/c2ccccc2)nn1-c1ccc(S(N)(=O)=O)cc1`, the values for the Ki in [1], in data set [2] and in [3] were 771 nM, 41.1 nM and 86.4 nM, respectively.

Turning to `Nc1nc(C(=O)NNC(=O)Nc2ccccc2)nn1-c1ccc(S(N)(=O)=O)cc1`, the inhibitory constant (Ki) in data set [1] is 307 nM; in [2] it was 4.9 nM; in data set [3], 70.5 nM.

For `COc1ccc(NC(=O)Nc2nc(N)n(-c3ccc(S(N)(=O)=O)cc3)n2)cc1`, the inhibition in [4] is 45 to 47%; in [9] it was 79 to 81%; in data set [10], 18 to 20%; in data set [15], 72 to 74%. For the same molecule, the inhibition at 0.25 h, 1 µM is 76% in [5] and 63% in [13]. The inhibition at 0.25 h, 10 µM turned out to be 75% in data set [6] and 85% in data set [12]. In addition, the values for the inhibition at 0.25 h, 0.01 µM in [7] and in [14] were 15% and 14%, respectively. For the same molecule, the inhibition constant Ki was 695 nM in data set [1], 3.3 nM in [2] and 127 nM in [3]. Besides, the results for the inhibition at 0.25 h, 0.1 µM in [8] and in data set [11] were 31% and 48%, respectively.

Regarding `Nc1nc(C(=O)N/N=C/c2ccc(N3CCCCC3)cc2)nn1-c1ccc(S(N)(=O)=O)cc1`, the Ki was 825 nM in data set [1], 33 nM in data set [2] and 95.4 nM in [3].

As for `Nc1nc(C(=O)NNC(=O)Nc2ccc(Cl)cc2)nn1-c1ccc(S(N)(=O)=O)cc1`, the values for the inhibition constant Ki in data set [1], in data set [2] and in data set [3] were 537 nM, 16.4 nM and 10.9 nM, respectively.

Consider `NS(=O)(=O)c1ccc(-n2nnc(C(=O)N/N=C(/CC(=O)c3ccccn3)C(F)(F)F)c2-c2ccccc2)cc1`, for which the inhibition constant Ki in data set [2] was determined as 0.7 nM.

With `Cc1cc(=O)n2c(C(=O)N/N=C/c3ccc(N4CCN(C)CC4)cc3)nn(-c3ccc(S(N)(=O)=O)cc3)c2n1`, the inhibitory constant (Ki) in data set [1] worked out at 4950 nM; in data set [2], 85 nM; in [3] it was 838 nM.

Take `COc1ccc(/C=N/NC(=O)c2nn(-c3ccc(S(N)(=O)=O)cc3)c3nc(C)cc(=O)n23)cc1`: the Ki in data set [1] was 2380 nM; in [2] it was 63.2 nM; in [3], 325 nM.

For the molecule `CCOC(=O)c1nn(-c2ccc(S(N)(=O)=O)cc2)c2nc(C)cc(=O)n12`, the Ki turned out to be 698 nM in [1], 35.9 nM in data set [2] and 85.6 nM in data set [3].

Take `NNC(=O)c1nc(N)n(-c2ccc(S(N)(=O)=O)cc2)n1`: the inhibition constant (Ki) in data set [1] worked out at 523 nM; in [2], 22.8 nM; in [3], 19.9 nM.

As to `Nc1nc(C(=O)N/N=C/c2ccc(O)cc2)nn1-c1ccc(S(N)(=O)=O)cc1`, the figures for the inhibition constant Ki in data set [1], in data set [2] and in data set [3] were 335 nM, 8.3 nM and 8.8 nM, respectively.

Take `Cc1cc(=O)n2c(C(=O)N/N=C/c3ccccn3)nn(-c3ccc(S(N)(=O)=O)cc3)c2n1`: the inhibition constant Ki was 3720 nM in data set [1], 47.9 nM in data set [2] and 537 nM in [3].

`Nc1nc(C(=O)NNC(=S)Nc2ccc(Cl)cc2)nn1-c1ccc(S(N)(=O)=O)cc1`: the Ki in data set [1] amounted to 598 nM; in data set [2], 16.7 nM; in data set [3], 11.1 nM.

For the molecule `Cc1cc(=O)n2c(C(=O)NN)nn(-c3ccc(S(N)(=O)=O)cc3)c2n1`, the values for the Ki in data set [1], in data set [2] and in data set [3] were 1680 nM, 45.4 nM and 74.7 nM, respectively.

`Nc1nc(NC(=O)Nc2ccc(S(N)(=O)=O)cc2)nn1-c1ccc(S(N)(=O)=O)cc1`: the Ki in data set [1] came to 677 nM; in [2], 28.6 nM; in data set [3] it was 78.7 nM.

For the molecule `Nc1nc(NC(=O)Nc2ccccc2)nn1-c1ccc(S(N)(=O)=O)cc1`, the Ki in data set [1] was determined as 442 nM; in [2] it was 8.2 nM; in [3] it was 9.8 nM.

In the case of `Nc1nc(C(=O)NNC(=S)Nc2ccccc2)nn1-c1ccc(S(N)(=O)=O)cc1`, the figures for the inhibitory constant (Ki) in data set [1], in data set [2] and in [3] were 368 nM, 40.2 nM and 9.7 nM, respectively.

Turning to `C/C(=N\NC(=O)c1nc(N)n(-c2ccc(S(N)(=O)=O)cc2)n1)c1ccncc1`, the Ki in [1] worked out at 295 nM; in data set [2] it was 5.8 nM; in data set [3], 8.5 nM.

Regarding `Cc1cc(=O)n2c(C(=O)N/N=C/c3ccncc3)nn(-c3ccc(S(N)(=O)=O)cc3)c2n1`, the results for the inhibitory constant (Ki) in [1], in data set [2] and in data set [3] were 2480 nM, 24.6 nM and 456 nM, respectively.

As for `Nc1nc(C(=O)N/N=C/c2ccc(Cl)cc2)nn1-c1ccc(S(N)(=O)=O)cc1`, the results for the Ki in data set [1], in [2] and in data set [3] were 703 nM, 73.2 nM and 6.9 nM, respectively.

`C/C(=N\NC(=O)c1nc(N)n(-c2ccc(S(N)(=O)=O)cc2)n1)c1ccc(N2CCOCC2)cc1`: the Ki in data set [1] is 793 nM; in data set [2], 31.7 nM; in data set [3] it was 53.9 nM.

Regarding `Nc1nc(NC(=O)Nc2ccc(F)cc2)nn1-c1ccc(S(N)(=O)=O)cc1`, the Ki is 94.4 nM in [1], 7.8 nM in [2] and 65.5 nM in data set [3].

As for `Nc1nc(NC(=O)Nc2ccc(Cl)cc2)nn1-c1ccc(S(N)(=O)=O)cc1`, the Ki was 403 nM in data set [1], 43.3 nM in [2] and 9.5 nM in [3].

In the case of `Nc1nc(C(=O)N/N=C/c2cccnc2)nn1-c1ccc(S(N)(=O)=O)cc1`, the Ki came to 477 nM in [1], 6.6 nM in data set [2] and 74.2 nM in [3].

With `COC(=O)c1nn(-c2ccc(S(N)(=O)=O)cc2)c2nc3cc(-c4cccs4)cc(-c4ccc([N+](=O)[O-])cc4)c3c(=O)n12`, the inhibition constant Ki in data set [2] amounted to 0.16 nM.

Take `Nc1nc(C(=O)N/N=C/c2ccc(N3CCOCC3)cc2)nn1-c1ccc(S(N)(=O)=O)cc1`: the inhibition constant (Ki) turned out to be 988 nM in [1], 19.7 nM in data set [2] and 64.2 nM in data set [3].

In the case of `Nc1nc(C(=O)N/N=C/c2ccc(F)cc2)nn1-c1ccc(S(N)(=O)=O)cc1`, the inhibition constant Ki in data set [1] came out at 495 nM; in data set [2] it was 31.5 nM; in data set [3], 65.2 nM.

On to `Cc1ccc(NC(=O)Nc2nc(N)n(-c3ccc(S(N)(=O)=O)cc3)n2)cc1`, for which the Ki in [1] was 313 nM; in data set [2], 3.9 nM; in data set [3] it was 42.8 nM.

Turning to `Nc1nc(C(=O)N/N=C/c2ccc([N+](=O)[O-])cc2)nn1-c1ccc(S(N)(=O)=O)cc1`, the inhibitory constant (Ki) was 1540 nM in [1], 34.4 nM in [2] and 24.7 nM in [3].

In the case of `CC(=O)OC[C@@H]1O[C@@H](OCc2cn(-c3ccc(S(N)(=O)=O)cc3)nn2)[C@@H](OC(C)=O)[C@H](OC(C)=O)[C@H]1OC(C)=O`, in data set [2], the inhibition constant (Ki) is 9.7 nM.

Consider `Nc1nc(NC(=O)Nc2ccc(C(=O)O)cc2)nn1-c1ccc(S(N)(=O)=O)cc1`, for which the Ki in [1] worked out at 507 nM; in data set [2], 15.3 nM; in data set [3] it was 9.6 nM.

Usually Ki stands for a measure of affinity in units of concentration, obtained from inhibition or displacement. The inhibition is the share of the control response that was lost under treatment.
